In patent US11986532B2 (Arvinas Operations, Inc., priority 2021, dated 2024):
Read-outs that look alike come from different tables or passages of the source.

Molecular target: T1, BCL6 (Homo sapiens, UniProt P41182)
T1 construct: endogenous in cells; host or cells: T47D breast cancer epithelial cells
Experiment: Immunofluorescence protocol for high content imaging of BCL6 (degradation) in T47D cells, 3 days compound treatment
Format: cell-based
Conditions: for DC50: read-out: Mean DC50 (nM)* category; for Dmax: read-out: Mean Dmax (%)** category
Procedure, shortened: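 For degradation, compound series (3-fold, 11 points, top 0.1 or 1 μM final) were added to adherent T47D cultures for 3 days. BCL6 immunostaining used a rabbit antibody at 1:300 and an Alexa-488 secondary, with imaging at 10× magnification.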

[1] = T47D cells, 3 days compound treatment

SMILES: CNC(=O)COc1cc2cc(Nc3nc(N4CCN(CC5(F)CCN(c6ccc7c(c6)CN(C6CCC(=O)NC6=O)C7=O)CC5)CC4)ncc3Cl)ccc2n(C(C)C)c1=O (stereo not drawn) [Compound 113, 2-{[6-({5-chloro-2-[4-({1-[2-(2,6-dioxopiperidin-3-yl)-1-oxo-3H-isoindol-5-yl]-4-fluoropiperidin-4-yl}methyl)piperazin-1-yl]pyrimidin-4-yl}amino)-1-isopropyl-2-oxoquinolin-3-yl]oxy}-N-methylacetamide]
- DC50 [1]: < 10 nM
- Dmax [1]: 50 to 70%

SMILES: CNC(=O)COc1cc2cc(Nc3nc(N4CCC(CN5CCC6(CC5)CC5(CN(c7ccc8c(c7F)CN(C7CCC(=O)NC7=O)C8=O)C5)C6)CC4)ncc3Cl)ccc2n(C(C)C)c1=O (stereo not drawn) [Compound 427]
- Dmax (T47D): ≥ 70%
- DC50: < 10 nM

SMILES: CNC(=O)COc1cc2cc(Nc3nc(N4CCC(O[C@H]5C[C@H](N6CCN(c7c(F)cc8c(c7F)CN(C7CCC(=O)NC7=O)C8=O)CC6)C5)CC4)ncc3Cl)ccc2n(C(C)C)c1=O (stereo partly drawn) [Compound 386, 2-({6-[(5-chloro-2-{4-[(1r,3r)-3-{4-[2-(2,6-dioxopiperidin-3-yl)-4,6-difluoro-1-oxo-2,3-dihydro-1H-isoindol-5-yl]piperazin-1-yl}cyclobutoxy]piperidin-1-yl}pyrimidin-4-yl)amino]-2-oxo-1-(propan-2-yl)-1,2-dihydroquinolin-3-yl}oxy)-N-methylacetamide]
- Dmax (T47D): 50 to 70%
- DC50: < 10 nM

SMILES: CNC(=O)COc1cc2cc(Nc3nc(N4CCC(CN5CC6(CCN(c7cc8c(cc7OC)C(=O)N(C7CCC(=O)NC7=O)C8)CC6)C5)CC4)ncc3Cl)ccc2n(C(C)C)c1=O (stereo not drawn) [Compound 85, 2-{[6-({5-chloro-2-[4-({7-[2-(2,6-dioxopiperidin-3-yl)-6-methoxy-1-oxo-2,3-dihydro-1H-isoindol-5-yl]-2,7-diazaspiro[3.5]nonan-2-yl}methyl)piperidin-1-yl]pyrimidin-4-yl}amino)-2-oxo-1-(propan-2-yl)-1,2-dihydroquinolin-3-yl]oxy}-N-methylacetamide]
- DC50 [1]: < 10 nM
- Dmax [1]: 50 to 70%

SMILES: CNC(=O)COc1cc2cc(Nc3nc(N4CCC(CN5CCC6(CC5)CCN6c5ccc6c(c5)CN(C5CCC(=O)NC5=O)C6=O)CC4)ncc3Cl)ccc2n(C(C)C)c1=O (stereo not drawn) [Compound 336, 2-{[6-({5-chloro-2-[4-({1-[2-(2,6-dioxopiperidin-3-yl)-1-oxo-2,3-dihydro-1H-isoindol-5-yl]-1,7-diazaspiro[3.5]nonan-7-yl}methyl)piperidin-1-yl]pyrimidin-4-yl}amino)-2-oxo-1-(propan-2-yl)-1,2-dihydroquinolin-3-yl]oxy}-N-methylacetamide]
- Dmax (T47D): ≥ 70%
- DC50: < 10 nM

SMILES: CNC(=O)COc1cc2cc(Nc3nc(N4CC(C)OC(C)C4)ncc3Cl)ccc2n(CCOc2ccc3c(c2)C(=O)N(C2CCC(=O)NC2=O)C3=O)c1=O (stereo not drawn) [Compound 33, 2-[(6-{[5-chloro-2-(2,6-dimethylmorpholin-4-yl)pyrimidin-4-yl]amino}-1-(2-{[2-(2,6-dioxopiperidin-3-yl)-1,3-dioxo-2,3-dihydro-1H-isoindol-5-yl]oxy}ethyl)-2-oxo-1,2-dihydroquinolin-3-yl)oxy]-N-methylacetamide]
- DC50 [1]: 50 to 100 nM
- Dmax [1]: < 50%

SMILES: CNC(=O)COc1cc2cc(Nc3nc(N4CCC(N5CCC56CN(C5CCN(c7ccc8c(c7)CN(C7CCC(=O)NC7=O)C8=O)C5)C6)CC4)ncc3Cl)ccc2n(C(C)C)c1=O (stereo not drawn) [Compound 234, 2-{[6-({5-chloro-2-[4-(6-{1-[2-(2,6-dioxopiperidin-3-yl)-1-oxo-2,3-dihydro-1H-isoindol-5-yl]pyrrolidin-3-yl}-1,6-diazaspiro[3.3]heptan-1-yl)piperidin-1-yl]pyrimidin-4-yl}amino)-2-oxo-1-(propan-2-yl)-1,2-dihydroquinolin-3-yl]oxy}-N-methylacetamide]
- Dmax (T47D): 50 to 70%
- DC50: < 10 nM

SMILES: CNC(=O)COc1cc2cc(Nc3nc(N4CCC(OC5CCC6(CC5)CN(c5cccc7c5C(=O)N(C5CCC(=O)NC5=O)C7)C6)CC4)ncc3Cl)ccc2n(C(C)C)c1=O (stereo not drawn) [Compound 70, 2-{[6-({5-chloro-2-[4-({2-[2-(2,6-dioxopiperidin-3-yl)-3-oxo-2,3-dihydro-1H-isoindol-4-yl]-2-azaspiro[3.5]nonan-7-yl}oxy)piperidin-1-yl]pyrimidin-4-yl}amino)-2-oxo-1-(propan-2-yl)-1,2-dihydroquinolin-3-yl]oxy}-N-methylacetamide]
- DC50 [1]: 10 to 50 nM
- Dmax [1]: 50 to 70%

SMILES: CNC(=O)COc1cc2cc(Nc3nc(N4CCC(O[C@H]5C[C@H](N6C[C@@H](C)N(c7ccc8c(c7)CN(C7CCC(=O)NC7=O)C8=O)[C@@H](C)C6)C5)CC4)ncc3Cl)ccc2n(C(C)C)c1=O (stereo partly drawn) [Compound 174, 2-({6-[(5-chloro-2-{4-[(1r,3r)-3-[(3R,5S)-4-[2-(2,6-dioxopiperidin-3-yl)-1-oxo-2,3-dihydro-1H-isoindol-5-yl]-3,5-dimethylpiperazin-1-yl]cyclobutoxy]piperidin-1-yl}pyrimidin-4-yl)amino]-2-oxo-1-(propan-2-yl)-1,2-dihydroquinolin-3-yl}oxy)-N-methylacetamide]
- DC50 [1]: < 10 nM
- Dmax [1]: ≥ 70%

SMILES: CNC(=O)COc1cc2cc(Nc3nc(N4CCC(O[C@H]5C[C@H](N6CC7(CN(c8ccc9c(c8C)C(=O)N(C8CCC(=O)NC8=O)C9=O)C7)C6)C5)CC4)ncc3Cl)ccc2n(C(C)C)c1=O (stereo partly drawn) [Compound 420, 2-({6-[(5-chloro-2-{4-[(1r,3r)-3-{6-[2-(2,6-dioxopiperidin-3-yl)-4-methyl-1,3-dioxo-2,3-dihydro-1H-isoindol-5-yl]-2,6-diazaspiro[3.3]heptan-2-yl}cyclobutoxy]piperidin-1-yl}pyrimidin-4-yl)amino]-2-oxo-1-(propan-2-yl)-1,2-dihydroquinolin-3-yl}oxy)-N-methylacetamide]
- Dmax (T47D): ≥ 70%
- DC50: < 10 nM

SMILES: CNC(=O)COc1cc2cc(Nc3nc(N4CCC(O[C@H]5C[C@H](N6CC7(CN(c8ccc9c(c8)C(=O)N(C8CCC(=O)NC8=O)C9=O)C7)C6)C5)CC4)ncc3Cl)ccc2n(C(C)C)c1=O (stereo partly drawn) [Compound 311, 2-({6-[(5-chloro-2-{4-[(1r,3r)-3-{6-[2-(2,6-dioxopiperidin-3-yl)-1,3-dioxo-2,3-dihydro-1H-isoindol-5-yl]-2,6-diazaspiro[3.3]heptan-2-yl}cyclobutoxy]piperidin-1-yl}pyrimidin-4-yl)amino]-2-oxo-1-(propan-2-yl)-1,2-dihydroquinolin-3-yl}oxy)-N-methylacetamide]
- Dmax (T47D): 50 to 70%
- DC50: < 10 nM

SMILES: CNC(=O)COc1cc2cc(Nc3nc(N4CCC(O[C@H]5C[C@H](N6CC7(CCN(c8ccc9c(c8)CN(C8CCC(=O)NC8=O)C9=O)C7)C6)C5)CC4)ncc3Cl)ccc2n(C(C)C)c1=O (stereo partly drawn) [Compound 351, 2-({6-[(5-chloro-2-{4-[(1r,3r)-3-{6-[2-(2,6-dioxopiperidin-3-yl)-1-oxo-2,3-dihydro-1H-isoindol-5-yl]-2,6-diazaspiro [3.4]octan-2-yl}cyclobutoxy]piperidin-1-yl}pyrimidin-4-yl)amino]-2-oxo-1-(propan-2-yl)-1,2-dihydroquinolin-3-yl}oxy)-N-methylacetamide]
- Dmax (T47D): ≥ 70%
- DC50: < 10 nM

SMILES: CNC(=O)COc1cc2cc(Nc3nc(N4CCN(CC5CCN(c6cc7c(cc6F)C(=O)N(C6CCC(=O)NC6=O)C7)CC5)CC4)ncc3Cl)ccc2n(C(C)C)c1=O (stereo not drawn) [Compound 15, 2-{[6-({5-chloro-2-[4-({1-[2-(2,6-dioxopiperidin-3-yl)-6-fluoro-1-oxo-2,3-dihydro-1H-isoindol-5-yl]piperidin-4-yl}methyl)piperazin-1-yl]pyrimidin-4-yl}amino)-2-oxo-1-(propan-2-yl)-1,2-dihydroquinolin-3-yl]oxy}-N-methylacetamide]
- DC50 [1]: < 10 nM
- Dmax [1]: 50 to 70%

SMILES: CNC(=O)COc1cc2cc(Nc3nc(N4CCN(C[C@H]5C[C@@H](N6CCC(c7ccc8c(c7)C(=O)N(C7CCC(=O)NC7=O)C8=O)CC6)C5)CC4)ncc3Cl)ccc2n(C(C)C)c1=O (stereo partly drawn) [Compound 40, 2-[(6-{[5-chloro-2-(4-{[(1s,3s)-3-{4-[2-(2,6-dioxopiperidin-3-yl)-1,3-dioxo-2,3-dihydro-1H-isoindol-5-yl]piperidin-1-yl}cyclobutyl]methyl}piperazin-1-yl)pyrimidin-4-yl]amino}-2-oxo-1-(propan-2-yl)-1,2-dihydroquinolin-3-yl)oxy]-N-methylacetamide]
- DC50 [1]: 10 to 50 nM
- Dmax [1]: 50 to 70%

SMILES: CNC(=O)COc1cc2cc(Nc3nc(C)ncc3Cl)ccc2n(CCOc2ccc3c(c2)C(=O)N(C2CCC(=O)NC2=O)C3=O)c1=O (stereo not drawn) [Compound 147, 2-({6-[(5-chloro-2-methylpyrimidin-4-yl)amino]-1-(2-{[2-(2,6-dioxopiperidin-3-yl)-1,3-dioxo-2,3-dihydro-1H-isoindol-5-yl]oxy}ethyl)-2-oxo-1,2-dihydroquinolin-3-yl}oxy)-N-methylacetamide]
- DC50 [1]: < 10 nM

SMILES: CNC(=O)COc1cc2cc(Nc3nc(N4CCN(C[C@H]5C[C@H](N6CCC(c7cccc8c7C(=O)N(C7CCC(=O)NC7=O)C8=O)CC6)C5)CC4)ncc3Cl)ccc2n(C(C)C)c1=O (stereo partly drawn) [Compound 24, 2-[(6-{[5-chloro-2-(4-{[(1r,3r)-3-{4-[2-(2,6-dioxopiperidin-3-yl)-1,3-dioxo-2,3-dihydro-1H-isoindol-4-yl]piperidin-1-yl}cyclobutyl]methyl}piperazin-1-yl)pyrimidin-4-yl]amino}-2-oxo-1-(propan-2-yl)-1,2-dihydroquinolin-3-yl)oxy]-N-methylacetamide]
- DC50 [1]: 50 to 100 nM
- Dmax [1]: < 50%

SMILES: CNC(=O)COc1cc2cc(Nc3nc(N4CCC(O[C@H]5C[C@H](N6C[C@H](C)N(c7ccc8c(c7)C(=O)N(C7CCC(=O)NC7=O)C8=O)[C@@H](C)C6)C5)CC4)ncc3Cl)ccc2n(C(C)C)c1=O (stereo partly drawn) [Compound 246, 2-({6-[(5-chloro-2-{4-[(1r,3r)-3-[(3S,5S)-4-[2-(2,6-dioxopiperidin-3-yl)-1,3-dioxo-2,3-dihydro-1H-isoindol-5-yl]-3,5-dimethylpiperazin-1-yl]cyclobutoxy]piperidin-1-yl}pyrimidin-4-yl)amino]-2-oxo-1-(propan-2-yl)-1,2-dihydroquinolin-3-yl}oxy)-N-methylacetamide]
- Dmax (T47D): 50 to 70%
- DC50: < 10 nM
